{"source": "patent US5167947A", "about": "“Enhancement of absorption of radioprotective drugs” (Southwest Research Institute, priority 1989, dated 1992)", "key": {"[1]": {"conditions": "cited from earlier work"}, "[2]": {"assay": "in situ rat intestinal perfusion of ethiofos: circulating perfusate and portal blood", "type": "in vivo, rat (male Sprague-Dawley)", "conditions": "for plasma concentration change on addition of Na2 EDTA: 1.0 mM Na2 EDTA vs without; for levels in portal blood samples, change on addition of Na2 EDTA: 1 mM Na2 EDTA vs without, ethiofos / total WR-1065; for level in portal blood: perfusion of [14C]ethiofos in pH-adjusted water, intact ethiofos / total WR-1065", "procedure": "Male Sprague-Dawley rats were maintained on a regular diet of rat chow prior to dosing and fasted 16 h before the experiment. Water was available ad libitum.\nRats weighing between 250 g and 325 g were chosen and anesthetized with 50.0 mg/kg sodium pentobarbital ip. The cannulation of the intestine was performed as previously described.\nThe proximal cannula was inserted through the stomach wall past the pyloric sphincter for experiments which included the bile flow. Experiments which excluded the bile flow were cannulated approximately 3 cm distal to the pyloric spinchter. Five microcuries of (^3 H)PEG 4000 was included in the perfusate to monitor water flux. For some experiments, 1 mCi of (^14 C)ethiofos was added to the reservoir.\nConcommitant sampling of blood was accomplished by insertion of a catheter in the portal vein via the ileocecal vein. […] Rectal temperature was monitored in early experiments to assure maintenance of body temperature in this system.\n(§1) Ethiofos was separated on a Bioanalytical Systems […] Phase II C18 ODS analytical column with an Uptight guard column packed with Whatman Pellicular C18 37-53 mm material. Amperometric detection was conducted with a Bioanalytical Systems LC 4B amperometric detector with a Hg/Au transducer ell. Detector signal was output to a Waters Associates Model 840 data system.\n(§2) A […] portion of blood was immediately treated with […] of chilled (0°-4° C.) 1.0M HC10 containing 1 g/L EDTA. The samples were vortexed and centrifuged at 15,600×g for 45 sec. […] Samples were immediately frozen at -78° C. in a dry ice/2-propanol bath and transferred to a freezer maintained at -78° C.\n(§3) The samples were prepared for HPLC analysis by adding 200 ml of buffer (pH 10). Samples were injected onto HPLC Unit A and amperometrically detected with an Hg/Au electrode at +0.25 V. The assay method has been previously described by Swynnerton, McGovern, Nino and Mangold: J. Radiat. Oncol.\n(§4) J. Radiat. Oncol. […] Samples were injected on HPLC Unit B and amperometrically detected at +0.15 V."}, "[3]": {"assay": "intraduodenal administration of ethiofos to Rhesus monkeys, plasma levels", "type": "in vivo", "conditions": "Rhesus monkey; for plasma levels on coadministration of ethiofos with EDTA: ethiofos / free and total WR-1065", "procedure": "An ethiofos solution was administered via rapid infusion through an infant nasogastric tube instilled in the duodenum of Rhesus monkeys. X-rays were taken to ensure proper location of the tube prior to drug administration. […] Prior to administration of dosing solution, 10 ml of 1 mM EDTA was predosed into the duodenum over 1 hr using a calibrated infusion pump.\nas §1, §2, §3, §4"}, "[4]": {"conditions": "in vivo; cited from earlier work"}, "[5]": {"conditions": "in vivo; cited from earlier work", "remark": "listed apart in the source"}, "Rhesus monkeys": {"tested_on": "Rhesus monkeys", "conditions": "cited from earlier work"}, "circulating calcium": {"tested_on": "circulating calcium", "conditions": "human clinical trials; cited from earlier work"}, "[6]": {"conditions": "stomach acid; cited from earlier work"}, "mice [7]": {"tested_on": "mice", "conditions": "intravenous; cited from earlier work"}, "mice [8]": {"tested_on": "mice", "conditions": "cited from earlier work"}, "dogs": {"tested_on": "dogs", "conditions": "cited from earlier work"}}, "note": "Several values for one entry are separate records, joined by “and”; a condition that tells them apart may be missing. Equal entries are not always repeated. Where two headings read alike, the source gives them in different places."}
{"smiles": "NCCCNCCS", "note": "[WR-1065]", "values": [{"measurement": "halflife compared with ethiofos", "setting": "[1]; rhesus monkey, in vivo, iv", "result": "much long halflife"}, {"measurement": "plasma concentration change on addition of Na2 EDTA", "setting": "[2]; rat", "result": "significant increase"}, {"measurement": "levels in portal blood samples, change on addition of Na2 EDTA", "setting": "[2]; rat", "result": "significant increases"}, {"measurement": "metabolite formed in the intestinal lumen", "setting": "[2]; rat, from perfusate mass balance", "result": "major metabolite"}, {"measurement": "level in portal blood", "setting": "[2]; rat, no EDTA", "result": "comparatively high levels"}, {"measurement": "plasma levels on coadministration of ethiofos with EDTA", "setting": "[3]; intraduodenal, awake", "result": "substantial increase"}, {"measurement": "toxicity of the free thiol relative to the parent drug ethiofos", "setting": "[4]", "result": "much more toxic"}]}
{"smiles": "NCCCNCCSP(=O)(O)O", "note": "[ethiofos, S-2-(3-aminopropylamino)ethylphosphorothioic acid]", "values": [{"measurement": "slowing of stomach motility and gastric emptying", "setting": "[5]", "result": "can slow stomach motility and gastric emptying"}, {"measurement": "plasma halflife", "setting": "[1]; iv, rhesus monkeys 150 mg/kg", "result": "approximately 18 minutes"}, {"measurement": "ethiofos or its metabolites excreted in the urine within 120 hours", "setting": "[1]; rhesus monkeys, iv 150 mg/kg, most within 24 hours", "result": 80, "unit": "%"}, {"measurement": "disappearance of parent compound from the perfusate", "setting": "[2]; rat in situ, [14C]ethiofos in pH-adjusted water, first 30 minutes, no EDTA", "result": "fairly rapid rate"}, {"measurement": "radioactivity accounted for by ethiofos and measured metabolite (mass balance of perfusate)", "setting": "[2]; rat intestinal perfusate, no EDTA", "result": "approximately 85%"}, {"measurement": "radioactivity not accounted for by WR-1065 and ethiofos", "setting": "[2]; rat intestinal perfusate, no EDTA, may be disulfides", "result": 15, "unit": "%"}, {"measurement": "plasma concentration change on addition of Na2 EDTA", "setting": "[2]; rat", "result": "significant increase"}, {"measurement": "levels in portal blood samples, change on addition of Na2 EDTA", "setting": "[2]; rat", "result": "significant increases"}, {"measurement": "labelled ethiofos / radioactivity remaining in the circulating perfusate", "setting": "[2]; rat, 90 min perfusion, pH-adjusted water, no EDTA", "result": "90.5±1.7% and 90.5±1.74%"}, {"measurement": "radioactivity remaining in the circulating perfusate", "setting": "[2]; rat, 90 min perfusion, with 1.0 mM Na2 EDTA", "result": "85.8±1.09", "unit": "%"}, {"measurement": "factor of increase of appearance of ethiofos in rat portal blood", "setting": "[2]; rat, EDTA enhancement, 90 minutes in situ perfusion", "result": 20}, {"measurement": "level in portal blood", "setting": "[2]; rat, no EDTA", "result": "transient and low levels"}, {"measurement": "protection against X-rays and gamma radiation", "setting": "Rhesus monkeys; Rhesus monkeys, intravenous", "result": "has been shown to protect"}, {"measurement": "protection (oral dosing)", "setting": "Rhesus monkeys; monkeys, oral", "result": "failed to protect"}, {"measurement": "plasma levels on coadministration of ethiofos with EDTA", "setting": "[3]; intraduodenal, awake", "result": "detectable levels"}, {"measurement": "AUC", "setting": "[3]; in vivo, intraduodenal 150 mg/kg, in the presence of EDTA (47:1 ethiofos to EDTA), read-out: AUC (plasma concentration-time curve)", "result": 0.55, "unit": "µM·h"}, {"measurement": "loss of circulating calcium", "setting": "circulating calcium", "result": "loss of circulating calcium"}, {"measurement": "hydrolysis in the acidic environment of the stomach", "setting": "[6]", "result": "can be hydrolyzed"}, {"measurement": "protection against X-rays and gamma radiation", "setting": "mice [7]", "result": "has been shown to protect"}, {"measurement": "approximate LD50", "setting": "mice [8]; intraperitoneal", "result": "~950", "unit": "mg/kg"}, {"measurement": "approximate LD50", "setting": "mice [8]; oral", "result": "~1500", "unit": "mg/kg"}, {"measurement": "protection against X-rays and gamma radiation", "setting": "dogs; intravenous", "result": "has been shown to protect"}, {"measurement": "protection (oral dosing)", "setting": "dogs; oral", "result": "failed to protect"}]}
{"smiles": "O=C(O)CN(CCN(CC(=O)O)CC(=O)O)CC(=O)O", "note": "[EDTA, ethylenediaminetetraacetic acid]", "values": [{"measurement": "protection of ethiofos degradation in the lumen by EDTA", "setting": "[2]; rat in situ", "result": "some protection"}, {"measurement": "rate of absorption of ethiofos with EDTA", "setting": "[2]; rat in situ", "result": "increase the rate of absorption"}, {"measurement": "EDTA concentration at which increased absorption reaches a maximum", "setting": "[2]; rat intestinal perfusion of ethiofos", "result": "approximately 1 mM"}, {"measurement": "EDTA concentration giving highest ethiofos levels in portal blood", "setting": "[2]; rat, 90 minutes in situ intestinal perfusion", "result": 1.5, "unit": "mM"}, {"measurement": "absorption of ethiofos with EDTA", "setting": "[3]; intraduodenal, awake", "result": "enhanced the absorption"}]}
